# Data from article PMC5650372 (Oncotarget, 2017).
# What was measured:
# NHEJ in Cal-51 cells = test: Cellular NHEJ assay with GFP reporter gene; assay type: cell-based, human; details: 1 μM
# Protocol: (§1) deficient cell growth in vitro […]
# (§2) incorporated in the corresponding no inhibitor control mTOR, DNA-PK and PI3K-alpha assays were to determine percent inhibition. An IC50 value was then performed as reported previously. estimated.
# (§3) ATM and ATR assay and IC50 determination Cellular NHEJ assay
# (§4) HA-ATM and FLAG-ATR (HA-labeled ATM, and The experimental design is illustrated in FLAG-labeled ATR) were each transiently expressed in Supplementary Figure 4. Cal-51 breast cancer cells HEK293 cells (293FT cells, Invitrogen Cat: R700-07) were separately transfected with pEGFP plasmid (6085-using Lipofectamine as transfection reagent. Cells were 1, Clontech, Mountain View, CA) digested with either harvested 6 days post transfection and spun down to EcoRI (to measure NHEJ) or StuI (to measure transfection separate cells from media. Cells were then lysed using a efficiency) using a Amaxa cell line nuclearfector kit V lysis buffer (50 mM Tris buffer, (Tris(hydroxylmethyl)- (CCA-1003, Lonza). Immediately after the transfection, aminomethane, pH 7.5), 100 mM NaCl, 50 mM βGOP, the cells were treated with DMSO or compounds at 10% Glycerol, 0.5% Tween 20, 1 mM EDTA, 25 mM indicated concentrations for 24 hours and GFP-positive sodium fluoride (NaF), 20 nM microcystine, 2 mM cells were counted under a fluorescent microscope. […]
# pATM S1981 = test: Western blot of cell-free NHEJ reaction (MCF7 nuclear extract); assay type: biochemical, human; details: MCF7 nuclear extract with linear dsDNA
# Protocol: (§5) Nuclear protein (10-20 μg) prepared above was pre-treated with compounds as indicated on ice for 15 minutes. Twenty-five nanograms of EcoRI-digested pBluescript DNA (Stratagene, La Jolla, CA) were then added and the mixture was adjusted to 20 μL final volume in NHEJ buffer (50 mM Hepes-KOH pH 8.0, 40 mM KOAc, 1 mM Mg(OAc)2, 1 mM ATP, 0.1 mg/mL BSA, and 1 mM DTT). After incubation at 25°C for 60 minutes, the reaction was terminated by incubation with 1 μg/mL RNase A for 10 minutes followed by treatment with 2 mg/mL Protease K in 0.5% SDS at 55°C for 30 minutes. The reactions were run onto 0.8% agarose and the gel was stained with Sybr Green (S756, Invitrogen, Carlsbad, CA). For Western blots, an aliquot of the same reaction mixture described above was subjected to SDS-PAGE, transferred to the PVDF membrane, and immunoblotted with indicated antibodies.
# pDNA-PK S2056 = test: as above; assay type: biochemical, human
# Protocol: as §5
# pChk2 T68 = test: as above; assay type: biochemical, human; details: MCF7 nuclear extract, 0.05, 0.5 or 5 μM
# Protocol: as §5
# [1] = system: pDNA-PK S2056 in NCI-H441 cells; test: Western blot quantitation of pDNA-PK S2056; assay type: cell-based, human
# Protocol: (§6) The cell lysates were subjected to SDS-PAGE and immunoblotting with indicated antibodies. […] The pDNA-PK bands were quantified by Odyssey imaging software (LI-COR, Lincoln, NE) and normalized to total DNA-PK. IC50 values were determined by Excelfit (London, UK).
# [2] = system: pAKT S473 in NCI-H441 cells; test: Western blot quantitation of pAKT S473 (mTORC2 biomarker); assay type: cell-based; details: Homo sapiens; NCI-H441, presence of bleomycin, 2 hrs, n=3; read-out: IC50 of pAKT S473 inhibition
# [3] = system: pS6 S235/236 in NCI-H441 cells; test: Western blot quantitation of pS6 S235/236 (mTORC1 biomarker); assay type: cell-based; details: Homo sapiens; NCI-H441, presence of bleomycin, 2 hrs, n=3; read-out: IC50 of pS6 S235/236 inhibition
# [4] = system: NCI-H1975 and SW1573 cells; test: Clonogenic assay alone or with etoposide; assay type: cell-based, human
# Protocol: Media were changed every three days. Plates were incubated for a total of about two weeks then fixed and stained using the DIFF QUIK staining kit. Colonies were imaged and counted.
# [5] = system: NHEJ in intact cells of different cell lines; test: Cellular NHEJ assay, summary over cell lines; assay type: cell-based; details: Homo sapiens; range over different cell lines (Table 1); read-out: potency against NHEJ in intact cells
# Protocol: as §1, §2, §3, §4
# [6] = system: pDNA-PK S2056 in HT29 and MDA-MB-436 cells; test: Immunoblotting of intact cells with bleomycin; assay type: cell-based, human; details: 5 μM with 1.5 mU/mL bleomycin, 2 or 12 hours
# Protocol: as §6
# [7] = system: panel of 123 cancer cell lines; test: Proliferation assay, whole panel; assay type: cell-based; details: Homo sapiens; range over 123 cell lines; read-out: GI50 values across the cancer cell line panel
# Protocol: Proliferation assays were performed as previously described. […] The concentration of compound required for a 2-fold induction of Caspase was determined (CalX).
structure (smiles),measurement,setting,value
"CCN1C(=O)CNc2ncc(-c3ccc(-c4nc[nH]n4)nc3C)nc21 [CC-115, 1-ethyl-7-(2-methyl-6-(1H-1,2,4-triazol-3-yl)pyridin-3yl)-3,4-dihydropyrazino[2,3-b]pyrazin-2(1H)-one]",GFP-positive cells (pEGFP-EcoRI),NHEJ in Cal-51 cells,1.25%
same,GFP-positive cells (pEGFP-StuI),NHEJ in Cal-51 cells; DMSO 25.71%,10.47%
same,"inhibition of pATM S1981, cell-free",pATM S1981,reduction
same,"inhibition of pDNA-PK S2056, cell-free",pDNA-PK S2056,inhibited
same,"inhibition of pChk2 T68, cell-free",pChk2 T68,also inhibited
same,IC50,"[1]; Homo sapiens, NCI-H441, presence of bleomycin, 2 hrs, n=3, read-out: IC50 of pDNA-PK S2056 inhibition",2600 ± 450 nM
same,cellular activity against DNA-PK weaker than against mTOR kinase,[1]; NCI-H441,~16 fold
same,IC50,[2],136 ± 62 nM
same,IC50,[3],160 ± 10 nM
same,combination with 6.8 μM etoposide on colony formation greater than additive,"[4]; 0.1 μM compound, 4 hours",not
same,combination with 6.8 μM etoposide on colony formation,"[4]; 10 μM compound, 4 hours",synergistic effect
same,"effect on cell survival, single agent",[4]; 4 hours treatment alone,minimal effect on cell survival
same,IC50,[5],1000 to 7000 nM
same,DNA-PK activity (pDNA-PK S2056),[6],significantly inhibited
same,GI50,[7],15 to 1770 nM
